Assay results taken from PMC3718800, “Structural and Functional Perturbation of Giardia lamblia Triosephosphate Isomerase by Modification of a Non-Catalytic, Non-Conserved Region” (PLoS ONE, 2013).
Where “and” joins values, the source holds several entries; their conditions need not be identical. Equal values may be shown once.

Key:
[1] = test system: yeast TIM, serine replaced by alanine in the YGGS motif; set-up: method as in PMID 1390632; details: mutant vs wild type yeast TIM; cited from earlier work
[2] = test system: yeast TIM, tyrosine by phenylalanine in the YGGS motif; set-up: method as in PMID 1390632; details: mutant vs wild type yeast TIM; cited from earlier work
GlTIM = details: cited from earlier work
C222N GlTIM [3] = molecular target: T1, C222N GlTIM (Giardia intestinalis, UniProt P36186, C222N); assay: Binding of 2-PG by change in intrinsic fluorescence; set-up: species or system Giardia lamblia
T1 construct: made in house; host or cells: E. coli BL21(DE3)pLys
Description: (§1) The change in the intrinsic fluorescence of GlTIM in response to the addition of the transition state analog 2-PG was used to determine the affinity of the enzyme for this ligand, as previously reported. Intrinsic fluorescence spectra were collected before and after each addition of 1 or 2 μL aliquots of a 3 or 30 mM stock solution of 2-PG. The final volume added to the fluorescence cell was always less than 5% of the total volume; there was no effect on the absorbance of the protein solution at 280 nm at the highest 2-PG concentration assayed. In all cases, the spectra of samples without protein were subtracted from those that contained the enzyme. For each mutant, the maximal fluorescence intensity at 332 nm, for every 2-PG concentration, was plotted and fitted to y = (α/2Et)(Et+x+Kd) - √ (Et+x+Kd)^2– (4xEt), where y = 1 - (Fi/F) (Fi, initial fluorescence; F, fluorescence intensity at each 2-PG concentration); α is the maximal fluorescence change attained at saturating concentration of the ligand, Et represents the concentration of binding sites, Kd is the equilibrium dissociation constant and x is the concentration of 2-PG [21], [23].

WT GlTIM [4] = molecular target: T2, WT GlTIM (Giardia intestinalis, UniProt P36186); assay: as above; set-up: species or system Giardia lamblia; details: 2-PG vs WT GlTIM, fluorescence at 332 nm
T2 construct: made in house; host or cells: E. coli BL21(DE3)pLys
Description: as §1

C222D GlTIM [5] = molecular target: T3, C222D GlTIM (Giardia intestinalis, UniProt P36186, C222D); assay: as above; set-up: species or system Giardia lamblia
T3 construct: made in house; host or cells: E. coli BL21(DE3)pLys
Description: as §1

C222M GlTIM [6] = molecular target: T4, C222M GlTIM (Giardia intestinalis, UniProt P36186, C222M); assay: as above; set-up: species or system Giardia lamblia
T4 construct: made in house; host or cells: E. coli BL21(DE3)pLys
Description: as §1

C222F GlTIM [7] = molecular target: T5, C222F GlTIM (Giardia intestinalis, UniProt P36186, C222F); assay: as above; set-up: species or system Giardia lamblia
T5 construct: made in house; host or cells: E. coli BL21(DE3)pLys
Description: as §1

C222V GlTIM [8] = molecular target: T6, C222V GlTIM (Giardia intestinalis, UniProt P36186, C222V); assay: as above; set-up: species or system Giardia lamblia
T6 construct: made in house; host or cells: E. coli BL21(DE3)pLys
Description: as §1

C222K GlTIM [9] = molecular target: T7, C222K GlTIM (Giardia intestinalis, UniProt P36186, C222K); assay: as above; set-up: species or system Giardia lamblia
T7 construct: made in house; host or cells: E. coli BL21(DE3)pLys
Description: as §1

C222N GlTIM [10] = molecular target: T1, C222N GlTIM; assay: Competitive inhibition of TIM activity by 2-PG (global fit); assay type: biochemical, Giardia lamblia
Description: (§2) Glyceraldehyde 3-phosphate (GAP), buffers, salts and all the other analytical grade reagents were acquired from Sigma–Aldrich; α-glycerol-3-phosphate dehydrogenase (α-GDH) was from Roche, crystallization screen kits were obtained from Hampton Research. Restriction enzymes, DNA polymerase and T4 DNA ligase were purchased from New England BioLabs and Invitrogene. Oligonucleotide synthesis and DNA sequencing was performed at the Unidad de Biología Molecular, Instituto de Fisiología Celular, UNAM. Protein concentration was determined by the bicinchoninic acid method or by absorbance at 280 nm for pure GlTIM (ε280 = 26600 M^-1cm^-1). The TIM activity was determined at 25°C by a coupled assay, following the decrease in absorbance at 340 nm. The standard reaction mixture contained 100 mM triethanolamine/10 mM EDTA, pH 7.4 (TE buffer), 1 mM GAP, 0.2 mM NADH, and 0.9 units of α-GDH (20 μg/mL); the reaction was initiated by addition of 5 ng/mL of WT, C222V or C222M GlTIM, 10 ng/mL of C222N, 20 ng/mL of C222D or C222F, and 200 ng/mL of C222K. Kinetic, binding and stability data were analyzed by non-linear regression calculations with Origin software.
(§3) Determination of Km and Vmax was performed by fitting initial velocity data at GAP concentrations ranging from 0.3 to 3 mM to the Michaelis-Menten equation (v = Vmax•S/Km+S) by non-linear regression calculations. The kcat was derived from Vmax by considering a molecular mass for the monomer of 27.7 kDa. The Ki for 2-phosphoglycolate (2-PG) was calculated by global fit of initial velocity curves (GAP from 0.3 to 3 mM) obtained at different fixed concentrations of the inhibitor. Prior to fitting collectively the data to the simple competitive inhibition equation (v = Vmax•S/Km(1+I/Ki)+S), individual data were plotted as double reciprocal plots to confirm competitive inhibition.

WT GlTIM [11] = molecular target: T2, WT GlTIM; assay: as above; assay type: biochemical, Giardia lamblia; details: 2-PG vs WT GlTIM
Description: as §2, §3

C222D GlTIM [12] = molecular target: T3, C222D GlTIM; assay: as above; assay type: biochemical, Giardia lamblia; details: 2-PG vs C222D
Description: as §2, §3

C222M GlTIM [13] = molecular target: T4, C222M GlTIM; assay: as above; assay type: biochemical, Giardia lamblia
Description: as §2, §3

C222F GlTIM [14] = molecular target: T5, C222F GlTIM; assay: as above; assay type: biochemical, Giardia lamblia; details: 2-PG vs C222F
Description: as §2, §3

C222V GlTIM [15] = molecular target: T6, C222V GlTIM; assay: as above; assay type: biochemical, Giardia lamblia
Description: as §2, §3

C222K GlTIM [16] = molecular target: T7, C222K GlTIM; assay: as above; assay type: biochemical, Giardia lamblia; details: highest concentrations of 2-PG that could be assayed
Description: as §2, §3

T1 sequence (P36186 whole entry C222N): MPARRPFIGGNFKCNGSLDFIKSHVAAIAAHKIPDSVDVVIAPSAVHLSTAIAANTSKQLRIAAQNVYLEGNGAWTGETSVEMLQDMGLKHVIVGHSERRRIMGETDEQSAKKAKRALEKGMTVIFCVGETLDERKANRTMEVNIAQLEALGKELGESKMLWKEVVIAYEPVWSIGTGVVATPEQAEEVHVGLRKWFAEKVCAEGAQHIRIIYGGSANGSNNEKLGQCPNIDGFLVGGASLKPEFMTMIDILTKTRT
T6 sequence (P36186 whole entry C222V): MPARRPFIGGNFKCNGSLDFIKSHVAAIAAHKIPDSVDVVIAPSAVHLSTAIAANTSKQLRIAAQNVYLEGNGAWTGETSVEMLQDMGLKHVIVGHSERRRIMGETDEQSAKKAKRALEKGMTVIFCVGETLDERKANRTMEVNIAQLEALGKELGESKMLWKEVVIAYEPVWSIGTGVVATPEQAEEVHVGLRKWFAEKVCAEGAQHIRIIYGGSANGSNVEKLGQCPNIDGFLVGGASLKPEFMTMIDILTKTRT
T4 sequence (P36186 whole entry C222M): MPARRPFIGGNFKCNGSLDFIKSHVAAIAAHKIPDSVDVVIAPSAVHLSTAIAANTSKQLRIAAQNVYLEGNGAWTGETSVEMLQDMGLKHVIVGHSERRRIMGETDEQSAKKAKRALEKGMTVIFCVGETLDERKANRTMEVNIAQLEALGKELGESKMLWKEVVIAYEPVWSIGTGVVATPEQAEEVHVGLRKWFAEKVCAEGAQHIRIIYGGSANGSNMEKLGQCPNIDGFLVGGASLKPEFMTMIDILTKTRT
T2 sequence (P36186 whole entry): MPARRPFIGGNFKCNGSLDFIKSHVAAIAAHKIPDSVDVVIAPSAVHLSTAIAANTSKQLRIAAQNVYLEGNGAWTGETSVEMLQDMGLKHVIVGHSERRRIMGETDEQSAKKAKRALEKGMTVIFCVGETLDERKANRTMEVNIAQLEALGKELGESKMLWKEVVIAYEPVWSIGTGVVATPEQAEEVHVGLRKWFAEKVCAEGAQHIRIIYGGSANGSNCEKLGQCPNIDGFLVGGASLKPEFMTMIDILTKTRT
T7 sequence (P36186 whole entry C222K): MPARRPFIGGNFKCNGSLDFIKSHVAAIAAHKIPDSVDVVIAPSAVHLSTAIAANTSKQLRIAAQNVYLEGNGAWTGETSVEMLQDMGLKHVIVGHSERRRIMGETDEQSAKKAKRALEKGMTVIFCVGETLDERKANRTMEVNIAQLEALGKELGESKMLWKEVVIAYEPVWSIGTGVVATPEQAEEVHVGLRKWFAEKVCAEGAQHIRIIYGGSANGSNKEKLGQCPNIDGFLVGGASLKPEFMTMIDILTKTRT
T3 sequence (P36186 whole entry C222D): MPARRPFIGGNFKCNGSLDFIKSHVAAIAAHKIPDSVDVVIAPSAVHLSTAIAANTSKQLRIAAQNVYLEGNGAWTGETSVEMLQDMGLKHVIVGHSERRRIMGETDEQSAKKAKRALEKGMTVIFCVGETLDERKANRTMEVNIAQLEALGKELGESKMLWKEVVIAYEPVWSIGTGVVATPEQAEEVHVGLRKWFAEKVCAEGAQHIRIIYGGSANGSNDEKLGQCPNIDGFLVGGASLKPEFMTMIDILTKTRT
T5 sequence (P36186 whole entry C222F): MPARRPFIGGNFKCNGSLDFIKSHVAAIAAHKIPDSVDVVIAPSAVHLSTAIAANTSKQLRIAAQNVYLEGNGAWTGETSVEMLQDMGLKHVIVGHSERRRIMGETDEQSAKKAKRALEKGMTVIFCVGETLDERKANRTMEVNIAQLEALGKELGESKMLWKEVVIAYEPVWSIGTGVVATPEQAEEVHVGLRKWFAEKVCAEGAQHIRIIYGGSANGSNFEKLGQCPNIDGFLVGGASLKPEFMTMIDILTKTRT

SMILES: O=C(COP(=O)(O)O)NO [PGH, phosphoglycolohydroxamate]
- change of affinity [1]: 5 fold
- increase in the Kd [2]: 200 fold

SMILES: O=C(O)c1cc(SSc2ccc([N+](=O)[O-])c(C(=O)O)c2)ccc1[N+](=O)[O-] [DTNB, 5,5′-dithio-bis (2-nitrobenzoic acid)]
- catalytic activity of GlTIM after derivatization of C222 (GlTIM): completely abolished
- inactivation of GlTIM (GlTIM): total inactivation

SMILES: O=C(O)COP(=O)(O)O [2-PG, 2-phosphoglycolate]
- Kd (C222N GlTIM [3]; 2-PG vs C222N, fluorescence at 332 nm): 113 ± 41.7 µM
- Kd MUT/Kd WT ratio (C222N GlTIM [3]; C222N vs WT): 4.29
- Kd (WT GlTIM [4]): 26.4 ± 2.6 µM
- changes in fluorescence induced by 2-PG (C222D GlTIM [5]): minimal
- Kd (C222M GlTIM [6]; 2-PG vs C222M, fluorescence at 332 nm): 79.4 ± 8.5 µM
- Kd MUT/Kd WT ratio (C222M GlTIM [6]; C222M vs WT): 3.01
- changes in fluorescence induced by 2-PG (C222F GlTIM [7]): minimal
- Kd (C222V GlTIM [8]; 2-PG vs C222V, fluorescence at 332 nm): 57.4 ± 7.1 µM
- Kd MUT/Kd WT ratio (C222V GlTIM [8]; C222V vs WT): 2.17
- changes in fluorescence induced by 2-PG (C222K GlTIM [9]): minimal
- Ki (C222N GlTIM [10]; 2-PG vs C222N, competitive): 560 ± 59 µM
- Ki MUT/Ki WT ratio (C222N GlTIM [10]; C222N vs WT): 6.4 and 6.44
- Ki (WT GlTIM [11]): 87 ± 15 µM
- Ki (C222D GlTIM [12]): 1480 ± 168 µM
- Ki (C222M GlTIM [13]; 2-PG vs C222M, competitive): 325 ± 50 µM
- Ki MUT/Ki WT ratio (C222M GlTIM [13]; C222M vs WT): 3.7 and 3.74
- Ki (C222F GlTIM [14]): 7280 ± 2010 µM
- Ki (C222V GlTIM [15]; 2-PG vs C222V, competitive): 98 ± 10 µM
- Ki MUT/Ki WT ratio (C222V GlTIM [15]; C222V vs WT): 1.13
- inhibition by 2-PG (C222K GlTIM [16]): only minimal inhibition was observed

SMILES: CSS(C)(=O)=O [MMTS, methylmethane thiosulfonate]
- catalytic activity of GlTIM after derivatization of C222 (GlTIM): reduced the catalytic activity of GlTIM by half
- decrease of the kcat/Km ratio after modification of C222 (GlTIM): three-fold decrease
